Assay results from PubChem BioAssay AID304 (DTP/NCI, 2004).
“And” between values parts separate entries of the source, which are not always exact repeats. Identical values can stand only once. Toxic doses and inconclusive results are not listed. Starred links: 1 amine or outer side, 2 acyl side, 3 side chain; linkers in the order of their positions; H or OH if unused. Positions of bridges follow the written chain, without caps; N, C: chain ends. Non-standard residues stand in square brackets, D forms with d. Residues, ends and D or L forms follow the SMILES beside them. Chains are numbered I, II in the order given. Actinocin(9to1) = Cc1c2oc3c(C)ccc(C(=O)[*:1])c3nc-2c(C(=O)[*:2])c(N)c1=O; aThr = C[C@H](O)[C@H](N)C(=O)O; NMeV = CN[C@H](C(=O)O)C(C)C; Sar = CNCC(=O)O

Tested on: Lymphosarcoma Mecca ip in C3AKF1 mice, survival T/C%
Assay: NCI In Vivo Anticancer Drug Screen. Data for tumor model Lymphosarcoma Mecca (intraperitoneal) in C3AKF1 (CHKRF1) mice
Details: endpoint: survival time, mean or median, schedule: Q01DX010 (ip), higher = longer survival
Description: The antitumor activity of compounds was measured in mice bearing transplantable tumors. Survival or tumor size were measured and the results are expressed as the measurement made in the treated group (T) divided by the measurement made in the vehicle treated control group (C). The tumor model used in this assay is Lymphosarcoma Mecca (intraperitoneal) in C3AKF1 (CHKRF1) mice

[1] = dose: 5.0 mg/kg/injection, vehicle: saline
[2] = dose: 10.0 mg/kg/injection, vehicle: saline
[3] = dose: 20.0 mg/kg/injection, vehicle: saline
[4] = dose: 8.0 mg/kg/injection, vehicle: saline
[5] = dose: 16.0 mg/kg/injection, vehicle: saline
[6] = dose: 25.0 mg/kg/injection, vehicle: saline
[7] = dose: 50.0 mg/kg/injection, vehicle: saline
[8] = dose: 100.0 mg/kg/injection, vehicle: saline
[9] = dose: 200.0 mg/kg/injection, vehicle: saline
[10] = dose: 1.0 mg/kg/injection, vehicle: saline
[11] = dose: 2.0 mg/kg/injection, vehicle: saline

`COC(=O)[C@@H]1c2cc3c(c(O)c2[C@@H](OC2OC(C)C(OC)C(C)(OC)C2OC)C[C@]1(C)O)C(=O)c1c(O)cc2c(c1C3=O)O[C@H]1O[C@]2(C)[C@H](O)[C@@H](N(C)C)[C@@H]1O` (stereo not given in full) was tested, and the T/C (dose: 125.0 micrograms/kg/injection, vehicle: saline) was 95 % of control and 100 % of control, the T/C (dose: 250.0 micrograms/kg/injection, vehicle: saline) was 110 % of control and the T/C (dose: 500.0 micrograms/kg/injection, vehicle: saline) was 100 % of control and 105 % of control.
In the case of `CC[n+]1c(-c2ccccc2)c2cc(N)ccc2c2ccc(N)cc21`, the T/C (dose: 1.25 mg/kg/injection, vehicle: saline) is reported as 100 % of control, the T/C (dose: 2.5 mg/kg/injection, vehicle: saline) is reported as 100 % of control and 120 % of control and the T/C [1] is reported as 100 % of control. The T/C [2] was 105 % of control and 120 % of control and the T/C [3] was 105 % of control.
With `Cc1c2oc3c(C)ccc(C(=O)N[C@@H]4C(=O)N[C@H](C(C)C)C(=O)N5CCC[C@H]5C(=O)N(C)CC(=O)N(C)[C@@H](C(C)C)C(=O)O[C@H]4C)c3nc-2c(C(=O)N[C@@H]2C(=O)N[C@H](C(C)C)C(=O)N3CCC[C@H]3C(=O)N(C)CC(=O)N(C)[C@@H](C(C)C)C(=O)O[C@H]2C)c(N)c1=O` (I: [aThr][dV]P[Sar][NMeV] / II: [aThr][dV]P[Sar][NMeV]; ester I:1-I:C, II:1-II:C; linker I:N-II:N via Actinocin(9to1)) the T/C (dose: 13.0 micrograms/kg/injection, vehicle: acid diluted with saline) was 183 % of control, the T/C (dose: 25.0 micrograms/kg/injection, vehicle: acid diluted with saline) was 103 % of control and the T/C (dose: 50.0 micrograms/kg/injection, vehicle: acid diluted with saline) was 123 % of control.
`Nc1nc(SCc2ccccc2)c2[nH]cnc2n1` was tested, and the T/C [4] was 90 % of control and the T/C [5] was 90 % of control.
For `O=NN(CCCl)C(=O)NCCCl`, the T/C (dose: 6.25 mg/kg/injection, vehicle: saline) was 275 % of control and 303 % of control, the T/C (dose: 12.5 mg/kg/injection, vehicle: saline) was 151 % of control and 155 % of control and the T/C [6] was 92 % of control and 115 % of control.
In the case of `N=C(N)c1ccc(Nc2ccc(C(=N)N)cc2)cc1`, the T/C (dose: 3.0 mg/kg/injection, vehicle: saline) is reported as 100 % of control, the T/C (dose: 6.0 mg/kg/injection, vehicle: saline) is reported as 90 % of control and 100 % of control and the T/C (dose: 12.0 mg/kg/injection, vehicle: saline) is reported as 100 % of control and 110 % of control. For the same compound, the T/C (dose: 24.0 mg/kg/injection, vehicle: saline) was 100 % of control.
`NC(=O)n1cccn1` was tested, and the T/C [6] was 90 % of control, the T/C [7] was 100 % of control and the T/C [8] was 100 % of control. The T/C [9] was 100 % of control.
`C1CN1c1nc(N2CC2)nc(N2CC2)n1` was tested, and the T/C (dose: 0.13 mg/kg/injection, vehicle: saline) was 180 % of control, the T/C (dose: 0.25 mg/kg/injection, vehicle: saline) was 152 % of control and the T/C (dose: 0.5 mg/kg/injection, vehicle: saline) was 96 % of control. For the same compound, the T/C [10] was 95 % of control.
In the case of `CO[C@@H]1[C@@H](OC2OC(C)C(OC3CC(C)(O)C(OC(=O)CC(C)C)C(C)O3)C(N(C)C)C2O)[C@@H](CC=O)C[C@@H](C)C(=O)/C=C/C2O[C@H]2C[C@@H](C)OC(=O)C[C@H]1OC(C)=O` (stereo not given in full), the T/C (dose: 4.7 mg/kg/injection, vehicle: saline) is reported as 90 % of control, the T/C (dose: 9.4 mg/kg/injection, vehicle: saline) is reported as 100 % of control and the T/C (dose: 18.8 mg/kg/injection, vehicle: saline) is reported as 90 % of control. For the same compound, the T/C (dose: 37.5 mg/kg/injection, vehicle: saline) was 90 % of control and 95 % of control and the T/C (dose: 75.0 mg/kg/injection, vehicle: saline) was 86 % of control.
In the case of `O=C(Nc1ccc(C2=NCCCN2)cc1)c1ccc(C(=O)Nc2ccc(C3=NCCCN3)cc2)cc1`, the T/C [10] is reported as 111 % of control and 116 % of control, the T/C [11] is reported as 116 % of control and 122 % of control and the T/C [4] is reported as 150 % of control.
With `NC(Cc1ccc(N(CCCl)CCCl)cc1)C(=O)O` (stereo not given) the T/C [11] was 188 % of control and 190 % of control, the T/C (dose: 4.0 mg/kg/injection, vehicle: saline) was 165 % of control and 224 % of control and the T/C [1] was 160 % of control. For the same compound, the T/C [4] was 168 % of control, the T/C [2] was 105 % of control and 110 % of control and the T/C [5] was 100 % of control and 108 % of control. For the same compound, the T/C [3] was 95 % of control.
`CSc1ncnc2nc[nH]c12` was tested, and the T/C [6] was 109 % of control, the T/C [7] was 95 % of control and 118 % of control and the T/C [8] was 95 % of control and 113 % of control. The T/C [9] was 104 % of control.
For `CCN(CC)CCNc1ccc(C)c2sc3ccccc3c(=O)c12`, the T/C [6] was 116 % of control and 122 % of control, the T/C [7] was 105 % of control and the T/C [8] was 111 % of control.
